Measurements published in US6693123B2 (University of Pittsburgh, priority 1995, dated 2004).

Biological target: T1, Rat brain protein farnesyltransferase (Rattus norvegicus, UniProt Q02293+Q04631)
T1 construct: The enzyme is purified according to Reiss, Y., et al., Cell, 62: 81-88 (1990), utilizing steps one through three; from tissue; host or cells: rat brain
Experiment: In vitro inhibition of protein farnesyltransferase, Amersham scintillation proximity assay with biotin-K Ras B fragment
Type: biochemical
Details: Inhibition of farnesyltransferase; compound at 1 × 10^−5 M (Table 1)
Excerpt: The ability of the compounds of the invention to inhibit protein farnesyltransferase or protein geranylgeranyltransferase can be measured according to the method of Moores, et al., J. Biol. Chem. 266: 14603 (1991) or the method of Vogt, et al., J. Biol. Chem. 270:660-664 (1995). In addition, procedures for determination of the inhibition of farnesylation of the oncogene protein Ras are described by Goldstein, et al., J. Biol. Chem., 266:15575-15578 (1991) and by Singh in U.S. Pat. No. 5,245,061.
In addition, in vitro inhibition of protein farnesyltransferase may be measured by the following procedure. Rat brain protein farnesyltransferase activity is measured using an Amersham Life Science commercial scintillation proximity assay kit and substituting a biotin-K Ras B fragment (biotin-[…]Ue-Met-CO2H), 0.1 mM final concentration, for the biotin-lamin substrate provided by Amersham. The enzyme is purified according to Reiss, Y., et al., Cell, 62: 81-88 (1990), utilizing steps one through three. […]
The % inhibition of protein farnesyltransferase was determined for representative compounds of the invention.

Row | SMILES | inhibition at 10 µM [%]
1 | CSCC[C@H](NC(=O)c1ccc(NCc2cnc(-c3ccccc3)[nH]2)cc1-c1ccccc1)C(=O)O [Example 382, 4-[N-(1-H-2-Phenylimidazole-4-yl)methylamino-2-phenylbenzoyl]-methionine] | > 50
2 | CSCC[C@H](NC(=O)c1ccc(NCc2nc[nH]c2C)cc1-c1ccccc1)C(=O)O [Example 383, 4-[N-(5-Methyl-1-H-imidazole-4-yl)-methylene-(amino-2-phenylbenzol)]methionine] | > 50
3 | CC(C)C[C@H](NC(=O)c1ccc(NCc2c[nH]cn2)cc1-c1ccccc1)C(=O)O [Example 387, 4-[N-(1H-Imidazol-4-yl)methylamino-2-phenylbenzoyl]leucine] | > 50
4 | CC(C)C[C@H](NC(=O)c1ccc(NCc2cnc[nH]2)cc1-c1cccc2ccccc12)C(=O)O [Example 388, 4-[N-(1H-Imidazol-4-yl)methylamino-2-(1-naphthyl)benzoyl]leucine] | > 50
5 | CC(C)C[C@H](NC(=O)c1ccc(NCc2cccnc2)cc1-c1ccccc1)C(=O)O [Example 390, 5-[N-(3-Pyridinyl)methylamino-2-phenylbenzoyl]leucine] | > 50

Same assay, conditions: Inhibition of farnesyltransferase; compound at 1 × 10^−6 M (Table 2)

Row | SMILES | % inhibition at 1 × 10^−6 M [%]
6 | Cc1ccccc1-c1cc(COc2cccnc2)ccc1C(=O)N[C@@H](CCC(N)=O)C(=O)O [Example 313, (S)-2-N-[4-(3-Pyridyloxymethyl)-2-(2-methyl)phenylbenzoyl]amino-4-(aminocarbonyl)butanoic Acid] | 94
7 | CNC(=O)CC[C@H](NC(=O)c1ccc(COc2cccnc2)cc1-c1ccccc1C)C(=O)O [Example 314, (S)-2-N-[4-(3-Pyridyloxymethyl)-2-(2-methylphenyl)benzoyl]amino-4-(N-methylaminocarbonyl)butanoic Acid] | 97
8 | CCNC(=O)CC[C@H](NC(=O)c1ccc(COc2cccnc2)cc1-c1ccccc1C)C(=O)O [Example 315, (S)-2-N-[4-(3-Pyridyloxymethyl)-2-(2-methylphenyl)benzoyl]amino-4-(N-ethylaminocarbonyl)butanoic Acid] | 93
9 | CSCCC(NC(=O)c1ccc(COc2cccnc2)cc1-c1ccccc1)C(=O)NS(=O)(=O)N1CCOCC1 (centres unmarked) [Example 318, [4-(3-Pyridyloxymethyl)-2-phenylbenzoyl]methionine 1-Morpholinylsulfonimide] | 98
10 | CSCC[C@H](NC(=O)c1ccc(CSc2cccnc2)cc1-c1ccccc1C)C(=O)O [Example 324] | 98
11 | CSCC[C@H](NC(=O)c1ccc(COc2cccnc2)cc1-c1ccccc1)C(=O)OCc1oc(=O)oc1C [Example 326, [4-(3-Pyridyloxymethyl)-2-phenylbenzoyl]methionine O-Dimethylvinylene Carbonate Ester] | 91

Same assay, conditions: Inhibition of farnesyltransferase; compound at 1 × 10^−6 M (Table 2); read-out: % inhibition at 1 × 10^−6 M

Row | SMILES | inhibition at 1 µM [%]
12 | COC(=O)[C@H](CCSC)NC(=O)c1ccc(NCc2cccnc2)cc1-c1ccccc1C [Example 308, [4-(3-Pyridylmethylamino)-2-(2-methylphenyl)benzoyl]methionine Methyl Ester] | 62
13 | CSCC[C@H](NC(=O)c1ccc(NCc2cccnc2)cc1-c1ccccc1C)C(=O)O [Example 309, [4-(3-Pyridylmethylamino)-2-(2-methylphenyl)benzoyl]methionine] | 98
14 | Cc1ccccc1-c1cc(COc2cccnc2)ccc1C(=O)N[C@@H](CCS(C)(=O)=O)C(=O)O [Example 311, N-[4-(3-Pyridyloxymethyl)-2-(2-methylphenyl)benzoyl]-2-amino-4-(methylsulfonyl)butanoic Acid] | 97
15 | NC(=O)CC[C@H](NC(=O)c1ccc(COc2cccnc2)cc1-c1ccccc1)C(=O)O [Example 316, (S)-2-N-[4-(3-Pyridyloxymethyl)-2-phenylbenzoyl]amino-4-(aminocarbonyl)butanoic Acid] | 63
16 | CCCCc1cc(C(=O)N[C@@H](CCSC)C(=O)O)c(-c2ccccc2C)cc1COc1cccnc1 [Example 319, [4-(3-Pyridyloxymethyl)-2-(2-methylphenyl)-5-butylbenzoyl]methionine] | 98
17 | CSCC[C@H](NC(=O)c1cc(CC(C)C)c(COc2cccnc2)cc1-c1ccccc1C)C(=O)O [Example 320, [4-(3-Pyridyloxymethyl)-2-(2-methylphenyl)-5-isobutylbenzoyl]methionine] | 93
18 | CSCC[C@H](NC(=O)c1ccc(CSc2cccnc2)cc1-c1ccccc1C)C(=O)NS(=O)(=O)c1ccccc1 [Example 325] | 99
19 | CSCC[C@H](NC(=O)c1ccc(CCc2c[nH]cn2)cc1-c1ccccc1)C(=O)O [Example 329, {4-[2-(1H-Imidazol-4-yl)ethyl]-2-phenylbenzoyl}methionine] | 98
20 | CSCC[C@H](NC(=O)c1ccc(CSCc2c[nH]cn2)cc1-c1ccccc1C)C(=O)O [Example 331, [4-(1H-Imidazol-4-ylmethylthiomethyl)-2-(2-methylphenyl)benzoyl]methionine] | 98
21 | CSCC[C@H](NC(=O)c1ccc(CNC(=O)c2cn(C)cn2)cc1-c1ccccc1)C(=O)O [Example 332, [4-(1H-1-Methylimidazol-4-ylcarbonylaminomethyl)-2-phenylbenzoyl]methionine] | 26
22 | CSCC[C@H](NC(=O)c1cc(-c2ccc(C)cc2)c(COc2cccnc2)cc1-c1ccccc1C)C(=O)O [Example 343] | 72
23 | CSCC[C@H](NC(=O)c1cc(Cc2ccccc2)c(COc2cccnc2)cc1-c1ccccc1C)C(=O)O [Example 344] | 95
24 | CSCC[C@H](NC(=O)c1cc(-c2cc(Cl)cc(Cl)c2)c(COc2cccnc2)cc1-c1ccccc1C)C(=O)O [Example 345] | 91
25 | CSCC[C@H](NC(=O)c1cc(-c2cccs2)c(COc2cccnc2)cc1-c1ccccc1C)C(=O)O [Example 346] | 98
26 | CSCC[C@H](NC(=O)c1ccc(NCc2ncc[nH]2)cc1-c1ccccc1C)C(=O)O [Example 386, 4-[N-(1-H-Imidazole-2-yl)methylamino-2-(2-methylphenyl)benzoyl]methionine] | > 50
27 | CSCC[C@H](NC(=O)c1ccc(CN(Cc2ccccc2)c2cccnc2)cc1-c1ccccc1C)C(=O)O [Example 407, [4-(N-Benzyl-N-3-pyridylaminomethyl)-2-(2-methylphenyl)benzoyl]methionine] | 98

Same assay, conditions: Inhibition of farnesyltransferase; compound at 1 × 10^−8 M (Table 4); read-out: % inhibition at 1 × 10^−8 M

Row | SMILES | inhibition at 0.01 µM [%]
28 | CSCC[C@H](NC(=O)c1ccc(NCc2c[nH]cn2)cc1-c1ccccc1C)C(=O)O [Example 384, 4-[N-(1-H-Imidazole-4-yl)methylamino-2-(2-methylphenylbenzoyl)]methionine] | 91
29 | COc1ccccc1-c1cc(NCc2cnc[nH]2)ccc1C(=O)N[C@@H](CC(C)C)C(=O)O [Example 397] | 50
30 | CSCC[C@H](NC(=O)c1ccc(COc2cccnc2)cc1-c1ccccc1)C(=O)NS(=O)(=O)N1CCN(C)CC1 [Example 401, [4-(3-Pyridyloxymethyl)-2-phenylbenzoyl]methionine 4-Methylpiperazinesulfonimide] | 66

Same assay, conditions: read-out: % inhibition at 1 × 10^−6 M

Row | SMILES | inhibition at 1 µM [%]
31 | CSCC[C@H](NC(=O)c1cc(I)c(COc2cccnc2)cc1-c1ccccc1C)C(=O)O [Example 347] | 95
32 | CSCC[C@H](NC(=O)Nc1ccc(COc2cccnc2)cc1-c1ccccc1)C(=O)O [Example 348, [4-(3-Pyridyloxymethyl)-2-(phenyl)phenylaminocarbonyl]methionine] | 66
